Experimental data: US11020398B2, “Amino-pyrrolopyrimidinone compounds and methods of use thereof” (ArQule, Inc., priority 2016, dated 2021)

Target: phosphorylated form of full length BTK (active BTK) (Homo sapiens (Human), UniProt Q06187)
Test: Mobility shift assay (MSA, Caliper LabChip), active BTK assay
Format: biochemical
Conditions: Assay type B (MSA using active BTK)
Procedure: The active BTK assay consists of phosphorylated form of full length BTK. […] The enzyme inhibitor complexes is incubated, before the kinase activation reaction is initiated.
Mobility Shift Assay (MSA)
The active BTK assay consisted of phosphorylated form of full length BTK. […] The enzyme inhibitor complexes was incubated for 30 minutes at the room temperature and the kinase activation reaction was initiated by the addition of 1 μM Srctide peptide substrate and […].

Sequence of phosphorylated form of full length BTK (active BTK) (Q06187 whole entry): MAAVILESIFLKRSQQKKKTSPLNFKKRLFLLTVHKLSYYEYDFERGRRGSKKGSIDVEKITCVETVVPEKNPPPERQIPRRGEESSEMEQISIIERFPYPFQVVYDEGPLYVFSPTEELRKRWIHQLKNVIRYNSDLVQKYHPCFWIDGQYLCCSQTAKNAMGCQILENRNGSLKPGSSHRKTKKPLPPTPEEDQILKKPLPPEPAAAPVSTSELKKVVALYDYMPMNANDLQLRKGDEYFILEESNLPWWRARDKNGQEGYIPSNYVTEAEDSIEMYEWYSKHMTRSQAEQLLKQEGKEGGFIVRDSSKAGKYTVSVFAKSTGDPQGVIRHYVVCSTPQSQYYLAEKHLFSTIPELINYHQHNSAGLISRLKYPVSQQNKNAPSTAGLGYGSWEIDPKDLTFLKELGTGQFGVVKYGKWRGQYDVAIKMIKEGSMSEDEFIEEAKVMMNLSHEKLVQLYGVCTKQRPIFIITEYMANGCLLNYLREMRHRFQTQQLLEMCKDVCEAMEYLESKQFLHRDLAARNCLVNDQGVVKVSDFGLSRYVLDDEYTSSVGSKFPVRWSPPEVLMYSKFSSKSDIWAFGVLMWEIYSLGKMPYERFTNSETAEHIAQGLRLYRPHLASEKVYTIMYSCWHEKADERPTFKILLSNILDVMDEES

Structure (SMILES): C[C@H](O)C(=O)N(C)[C@H]1CC[C@@H](Nc2ncnc3[nH]cc(C(=O)c4ccccc4Cl)c23)CC1 [Compound I-106, (S)—N-(cis-4-((5-(2-chlorobenzoyl)-7H-pyrrolo[2,3-d]pyrimidin-4-yl)amino)cyclohexyl)-2-hydroxy-N-methylpropanamide]
- IC50: 4.6 nM

Structure (SMILES): C[C@@H](O)C(=O)N[C@H]1CC[C@@H](Nc2ncnc3[nH]cc(C(=O)c4ccc(Oc5ccccc5)cc4)c23)CC1 [Compound I-206, (R)-2-hydroxy-N-(cis-4-((5-(4-phenoxybenzoyl)-7H-pyrrolo[2,3-d]pyrimidin-4-yl)amino)cyclohexyl)propanamide]
- IC50: 1.8 nM

Structure (SMILES): CC(=O)N[C@@H](C)[C@@H]1CC[C@@H](Nc2ncnc3[nH]cc(C(=O)c4ccc(Oc5ccccc5)cc4)c23)CO1 [Compound I-198, N-((S)-1-((2S,5R)-5-((5-(4-phenoxybenzoyl)-7H-pyrrolo[2,3-d]pyrimidin-4-yl)amino)tetrahydro-2H-pyran-2-yl)ethyl)acetamide]
- IC50: 2.6 nM

Structure (SMILES): C[C@H](O)C(=O)NC[C@@H]1CC[C@@H](Nc2ncnc3[nH]cc(C(=O)c4ccc(Oc5ccccc5)cc4)c23)CO1 [Compound I-211, (S)-2-hydroxy-N-(((2S,5R)-5-((5-(4-phenoxybenzoyl)-7H-pyrrolo[2,3-d]pyrimidin-4-yl)amino)tetrahydro-2H-pyran-2-yl)methyl)propanamide]
- IC50: 2.9 nM

Structure (SMILES): O=C(c1ccc(Oc2ccccc2)cc1)c1c[nH]c2ncnc(N[C@H]3C[C@H](CO)C3)c12 [Compound I-187, (4-((trans-3-(hydroxymethyl)cyclobutyl)amino)-7H-pyrrolo[2,3-d]pyrimidin-5-yl)(4-phenoxyphenyl)methanone]
- IC50: 4.2 nM

Structure (SMILES): CN(C)CC(=O)N[C@H]1CC[C@@H](Nc2ncnc3[nH]cc(C(=O)c4ccc(Oc5ccccc5)cc4Cl)c23)CC1 [Compound I-181, N-(cis-4-((5-(2-chloro-4-phenoxybenzoyl)-7H-pyrrolo[2,3-d]pyrimidin-4-yl)amino)cyclohexyl)-2-(dimethylamino)acetamide]
- IC50: 0.98 nM

Structure (SMILES): CN(C)C[C@]1(O)CC[C@H](Nc2ncnc3[nH]cc(C(=O)c4ccc(Oc5ccccc5)cc4Cl)c23)CC1 [Compound I-177, (2-chloro-4-phenoxyphenyl)(4-((trans-4-((dimethylamino)methyl)-4-hydroxycyclohexyl)amino)-7H-pyrrolo[2,3-d]pyrimidin-5-yl)methanone]
- IC50: 1.7 nM

Structure (SMILES): CC(O)CCCCCC(=O)N[C@H]1CC[C@@H](Nc2ncnc3[nH]cc(C(=O)c4ccc(Oc5ccccc5)cc4Cl)c23)CC1 (mixture of isomers) [Compound I-214, rac-N-(cis-4-((5-(2-chloro-4-phenoxybenzoyl)-7H-pyrrolo[2,3-d]pyrimidin-4-yl)amino)cyclohexyl)-7-hydroxyoctanamide]
- IC50: 7.4 nM

Structure (SMILES): N[C@H]1CC[C@@H](Nc2ncnc3[nH]cc(C(=O)c4cccc(Oc5ccccc5)c4)c23)CC1 [Compound I-131, (4-((cis-4-aminocyclohexyl)amino)-7H-pyrrolo[2,3-d]pyrimidin-5-yl)(3-phenoxyphenyl)methanone]
- IC50: 3.8 nM

Structure (SMILES): C[C@H](NC(=O)[C@@H](C)O)[C@@H]1CC[C@@H](Nc2ncnc3[nH]cc(C(=O)c4ccc(Oc5ccccc5)cc4)c23)CO1 [Compound I-215, (R)-2-hydroxy-N-((S)-1-((2S,5R)-5-((5-(4-phenoxybenzoyl)-7H-pyrrolo[2,3-d]pyrimidin-4-yl)amino)tetrahydro-2H-pyran-2-yl)ethyl)propanamide]
- IC50: 3.9 nM

Structure (SMILES): O=C(c1ccc(Oc2ccccc2)cc1Cl)c1c[nH]c2ncnc(N[C@H]3C[C@H](CO)C3)c12 [Compound I-207, (2-chloro-4-phenoxyphenyl)(4-((trans-3-(hydroxymethyl)cyclobutyl)amino)-7H-pyrrolo[2,3-d]pyrimidin-5-yl)methanone]
- IC50: 4.1 nM

Structure (SMILES): C[C@@H](O)C(=O)NC[C@@H]1CC[C@@H](Nc2ncnc3[nH]cc(C(=O)c4ccc(Oc5ccccc5)cc4Cl)c23)CO1 [Compound I-216, (R)—N-(((2S,5R)-5-((5-(2-chloro-4-phenoxybenzoyl)-7H-pyrrolo[2,3-d]pyrimidin-4-yl)amino)tetrahydro-2H-pyran-2-yl)methyl)-2-hydroxypropanamide]
- IC50: 1.9 nM

Structure (SMILES): CC(=O)NC[C@@H]1CC[C@@H](Nc2ncnc3[nH]cc(C(=O)c4ccccc4C)c23)CO1 [Compound I-119, N-(((2S,5R)-5-((5-(2-methylbenzoyl)-7H-pyrrolo[2,3-d]pyrimidin-4-yl)amino)tetrahydro-2H-pyran-2-yl)methyl)acetamide]
- IC50: 5.1 nM
